Results published in BindingDB's records for doi:10.1021/acs.jmedchem.9b00186 (Bristol-Myers Squibb Research & Development, 2019).

How the values were obtained:
[1] = Antagonist activity at PAR4 in human platelet rich plasma assessed as inhibition of gamma-thrombin-induced platelet aggregation preincubated for 5 mins followed by gamma-thrombin addition and measured in presence of recombinant hirudin
[2] = Antagonist activity at PAR4 in human washed platelets assessed as inhibition of gamma-thrombin-induced platelet aggregation preincubated for 5 mins followed by gamma-thrombin addition and measured every 50 secs for up to 15 mins starting from 10 secs post gamma-thrombin addition in presence of recombinant hirudin

Row | IC50 [1] | IC50 [2] | SMILES
1 | 4.1 µM | 3.1 µM | COc1nn2cc(-c3cc4c(OCc5ccccc5)cccc4o3)nc2s1 [US9862730, Example 210]
2 | > 3 µM | – | COc1ccc(COc2cc(OC)cc3oc(-c4cn5nc(OC)sc5n4)cc23)cc1
3 | 0.48 µM | 0.12 µM | COc1ccc2cc(-c3cn4nc(OC)sc4n3)oc2c1 [US9862730, Example 71]
4 | – | > 30 µM | CS(=O)(=O)c1nn2cc(-c3cc4ccccc4o3)nc2s1
5 | – | 2.4 µM | CCc1nn2cc(-c3cc4ccccc4o3)nc2s1 [US9862730, Example 47]
6 | > 1 µM | – | COc1cc(OCc2ccccc2C(F)(F)F)c2cc(-c3cn4nc(OC)sc4n3)oc2c1
7 | 0.48 µM | – | COc1cc(OCCOc2ccccc2)c2cc(-c3cn4nc(OC)sc4n3)oc2c1
8 | 1.3 µM | 0.35 µM | COc1nn2cc(-c3cc4c(OC)cccc4o3)nc2s1 [US9862730, Example 11]
9 | 0.6 µM | – | COc1cc(OCc2cccc(COc3ccccc3)c2)c2cc(-c3cn4nc(OC)sc4n3)oc2c1
10 | > 1 µM | – | COc1cc(OCc2ccc(Cl)cc2)c2cc(-c3cn4nc(OC)sc4n3)oc2c1
11 | 0.68 µM | – | COc1cc(OCc2cccc(Cl)c2)c2cc(-c3cn4nc(OC)sc4n3)oc2c1
12 | 1.2 µM | – | COc1cc(OCc2cccc(CCc3ccccc3)c2)c2cc(-c3cn4nc(OC)sc4n3)oc2c1
13 | 0.39 µM | – | COc1cc(OCc2cccc(Oc3ccccc3)c2)c2cc(-c3cn4nc(OC)sc4n3)oc2c1
14 | > 1 µM | – | COc1cc(OCc2ccccc2OC)c2cc(-c3cn4nc(OC)sc4n3)oc2c1
15 | 0.5 µM | – | COc1cc(OCCOCc2ccccc2)c2cc(-c3cn4nc(OC)sc4n3)oc2c1
16 | 0.55 µM | – | COc1cc(OCc2ccc(OCc3ccccc3)cc2)c2cc(-c3cn4nc(OC)sc4n3)oc2c1
17 | 1.8 µM | – | COc1cc(OCc2ccc(C(F)(F)F)cc2)c2cc(-c3cn4nc(OC)sc4n3)oc2c1
18 | > 3 µM | – | COc1cc(OCc2ccccc2Cl)c2cc(-c3cn4nc(OC)sc4n3)oc2c1
19 | > 30 µM | > 30 µM | COc1nn2cc(-c3cc4ccc(OC)c(OC)c4o3)nc2s1 [US9862730, Example 10]
20 | – | > 30 µM | CNc1nn2cc(-c3cc4ccccc4o3)nc2s1 [US9862730, Example 69]

Row | IC50 [1] | IC50 [2] | SMILES
21 | 0.78 µM | – | COc1cc(OCCc2ccccc2)c2cc(-c3cn4nc(OC)sc4n3)oc2c1
22 | – | 0.27 µM | CSc1nn2cc(-c3cc4ccccc4o3)nc2s1 [US9862730, Example 1]
23 | > 30 µM | 1.8 µM | COc1nn2cc(-c3cc4ccc(OCc5ccccc5)cc4o3)nc2s1 [US9862730, Example 104]
24 | 0.82 µM | – | COc1cc(OCc2cccc(C#N)c2)c2cc(-c3cn4nc(OC)sc4n3)oc2c1
25 | 0.41 µM | – | COc1cc(OCc2cccc(Sc3ccccc3)c2)c2cc(-c3cn4nc(OC)sc4n3)oc2c1
26 | 2.5 µM | – | COc1cc(OCc2ccccc2OCc2ccccc2)c2cc(-c3cn4nc(OC)sc4n3)oc2c1
27 | > 1 µM | – | COc1cc(OCc2cccc(CO)c2)c2cc(-c3cn4nc(OC)sc4n3)oc2c1
28 | 15 µM | 0.24 µM | COc1nn2cc(-c3cc4ccccc4o3)nc2s1
29 | > 1 µM | – | COc1cccc(COc2cc(OC)cc3oc(-c4cn5nc(OC)sc5n4)cc23)c1
30 | 2.7 µM | – | COc1cc(OCc2cccc(O)c2)c2cc(-c3cn4nc(OC)sc4n3)oc2c1
31 | – | > 30 µM | CC(C)Oc1nn2cc(-c3cc4ccccc4o3)nc2s1
32 | 0.44 µM | – | COc1cc(OCc2cccc(C(F)(F)F)c2)c2cc(-c3cn4nc(OC)sc4n3)oc2c1
33 | 10 µM | 2.1 µM | COc1nn2cc(-c3cc4c(OC)ccc(OC)c4o3)nc2s1 [US9862730, Example 103]
34 | 0.53 µM | 0.074 µM | COc1cc(OC)c2cc(-c3cn4nc(OC)sc4n3)oc2c1 [US9862730, Example 73]
35 | 3.5 µM | 0.24 µM | COc1nn2cc(-c3cc4cccc(OC)c4o3)nc2s1 [US9862730, Example 9]
36 | – | 2.1 µM | CCOc1nn2cc(-c3cc4ccccc4o3)nc2s1
37 | – | > 30 µM | c1ccc2oc(-c3cn4nc(C5CC5)sc4n3)cc2c1 [US9862730, Example 63]
38 | 3.6 µM | – | COc1cc(OCc2ccccc2C)c2cc(-c3cn4nc(OC)sc4n3)oc2c1
39 | > 30 µM | > 30 µM | COc1ccc2oc(-c3cn4nc(OC)sc4n3)cc2c1 [US9862730, Example 93]
40 | – | > 30 µM | Cc1nn2cc(-c3cc4ccccc4o3)nc2s1 [US9862730, Example 41]
